Values quoted from earlier work in patent US20260273108A1, “USE OF ACRYLIC ACID-CONTAINING POLYMERS FOR MOLECULAR IMAGING OF TARGET PROTEINS” (The Johns Hopkins University, priority 2023, published 2026).
Like-named read-outs stand apart in the source and are kept apart here. Marks after values point to notes of the source that are not given here.

Tests used:
[1] = for Radio frequency: radiofrequency for saturation (CEST)
[2] = bolus intravenous injection in humans
[3] = IV dose for rodents
[4] = water-exchanging protons at a pH of 7-7.4 and temperature of 36-67° C.

Structure (SMILES) | IV Dose [2] | Radio frequency [1] | Exchange rate kex ([1]; exchange rates for glucose, pH of 7-7.4 and temperature of 36-67° C.) | Exchange rate kex [1, 4] | IV Dose [3]
Nc1ccc(C(=O)O)c(O)c1 [4-Aminosalicylate] | 2.33 mmol/kg | – | – | N/A, 1,200 s^−1 | –
N=C(N)NCCC[C@H](N)C(=O)O [Arginine] | – | 1.8-2.0 ppm | – | 1,200 s^−1 | –
O=C1CC(=O)NC(=O)N1 [Barbituric acid] | – | 5.0 ppm | – | – | 1.56* mmole/kg

Continued, in another order:

IV Dose [2] | Radio frequency [1] | Exchange rate kex ([1]; exchange rates for glucose, pH of 7-7.4 and temperature of 36-67° C.) | Structure (SMILES) | Exchange rate kex [1, 4] | IV Dose [3]
5.61 mmol/kg | 3.0 ppm | – | C[C@H](N)C(=O)O [Alanine] | 7,670 s^−1 | –
1.86 mmol/kg | 1.2 ppm | 2,900-14,000^# s^−1 | N[C@H]1C(O)O[C@H](CO)[C@@H](O)[C@@H]1O (stereo partly drawn) [Glucosamine] | – | –
1.43 mmol/kg | 6.3-6.4 ppm | – | O=c1ccn([C@@H]2O[C@H](CO)[C@@H](O)[C@H]2O)c(=O)[nH]1 [Uridine] | 3080 s⁻¹ | –
